ChEMBL document CHEMBL1150751, “Bioactive components of Allamanda schottii” (J Nat Prod, 1988)
Converted amounts (≈) assume the structure as drawn. The source made the active and inactive calls. No cut-off for these calls is given here.

Columns and labels:
[1] = Cytotoxicity against human 9KB cells; format: functional; details: read-out: ED50 (the source's name)
Artemia = experiment: Toxicity in brine shrimp; format: organism-based; details: in vivo
P388 = experiment: Antileukemic activity against mouse P388 cells xenografted in mouse; format: functional
[2] = tested on: Agrobacterium tumefaciens; experiment: Antitumor activity against Agrobacterium tumefaciens-induced crown gall tumor in potato tubers by potato disk assay; format: functional

| Compound | EC50 [1] [µg/mL] | LC50 (Artemia) [ppm] | T/C (P388) [%] | inhibition (INH) [2] [%] | inhibition [2] |
| --- | --- | --- | --- | --- | --- |
| C/C=C1/C(=O)O[C@@]23C=C[C@H]4[C@@H](C(=O)OC)[C@H](O)O[C@@H](O[C@H]12)[C@H]43 [ALLAMANDIN] | 2.1 (≈ 6.81 µM) | 21.3 | 145 | 51 |  |
| C/C=C1/C(=O)O[C@@]23C=C[C@H]4C[C@H](O)O[C@@H](O[C@H]12)[C@H]43 [ALLAMCIN] |  | > 1000 |  |  | inactive |
| C/C=C1\C(=O)O[C@]23C=C[C@@H]4C(C(=O)OC)=CO[C@H](O[C@@H]12)[C@@H]43 [ISOPLUMERICIN] | 2.7 (≈ 9.3 µM) | 1.7 | 145 | 44 |  |
| COc1cc([C@H]2OC[C@H]3[C@@H]2CO[C@H]3c2ccc(O)c(OC)c2)ccc1O [PINORESINOL] | 100 (≈ 279 µM) | 377 |  |  | inactive |
| C/C=C1/C(=O)O[C@]23C=C[C@@H]4C(C(=O)OC)=CO[C@H](O[C@@H]12)[C@@H]43 [PLUMERICIN] | 2.6 (≈ 8.96 µM) | 1.7 |  | 44 |  |
| COc1cc2ccc(=O)oc2cc1OC [SCOPARONE] | 61 (≈ 296 µM) | 349 |  |  | inactive |
| COc1cc2ccc(=O)oc2cc1O [SCOPOLETIN] | 16 (≈ 83.3 µM) | 55 | 133 | 20 |  |
